# Like-named read-outs stand apart in the source and are kept apart here.
# Key:
# [1] = system: Aspergillus fumigatus; assay: checkerboard drug interaction (FICI, MICc);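 also: simplified diagonal checkerboard screen pairing antifungals with FPPS inhibitors against Aspergillus fumigatus, with FICI calculated under the Loewe additivity model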; type: cell-based; conditions: A. fumigatus, KET:INH combination
# Description: (§1) Drug interactions between antifungals and FPPS inhibitors were investigated using a simplified checkerboard diagonal screening method ([45]). […] FICIs were determined according to the Loewe additivity model ([17]).
# [2] = system: Saccharomyces cerevisiae; assay: checkerboard drug interaction (FICI, MICc);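 as to all read-outs here: simplified diagonal checkerboard screen pairing antifungals with FPPS inhibitors, FICI calculated under the Loewe additivity model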; type: cell-based; design: INH MICc / INH MICc (ITR:INH) / INH MICc (KET:INH) / INH MICc (FLC:INH): unit not given beside the values; conditions: S. cerevisiae; for INH FD (MIC-MICc fold decrease): fold decrease of inhibitor MIC
# [3] = system: Candida albicans; assay: MIC/MFC broth microdilution (CLSI); type: cell-based; conditions: Candida albicans SC5314
# Description: (§2) Antifungal susceptibility was determined by broth microdilution according to the CLSI guidelines described in M27-Ed4 ([16]). […] MFC was determined by back-plating drug-treated cultures from MIC broths onto SDA plates. The MFC was defined as the lowest concentration from which no colonies could be cultured.
# [4] = system: Saccharomyces cerevisiae; assay: MIC/MFC broth microdilution (CLSI); type: cell-based; conditions: Saccharomyces cerevisiae S288c
# Description: as §2
# [5] = system: HEK-293T cells; assay: MTT reduction cytotoxicity assay; type: cell-based; conditions: Homo sapiens, HEK-293T, 72 h, MTT, 72 h
# [6] = system: eight fungal species; assay: checkerboard interaction with azoles, summary across the eight species; type: cell-based; conditions: geometric mean MIC in combination with azoles
# Description: Synergy between lipophilic FPPS inhibitors and azole antifungals was investigated by determining the fractional inhibitory concentration index (FICI) (Fig. 2; Table S1 Fig. S1) ([17]). […]. Derivatives PLA9 and 11, and PDA9, 11, and 12 antagonized azoles in C. albicans, C. neoformans, and C. deuterogattii, yet were largely synergistic in C. glabrata and S. cerevisiae. […].
# [7] = system: Cryptococcus neoformans; assay: checkerboard drug interaction (FICI, MICc);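 as to all read-outs here: antifungal plus FPPS inhibitor pairs tested against Cryptococcus neoformans by simplified diagonal checkerboard screening, FICI computed under the Loewe additivity model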; type: cell-based; conditions: C. neoformans; for INH FD (MIC-MICc fold decrease): fold decrease of inhibitor MIC
# Description: as §1
# [8] = system: Trichophyton rubrum; assay: checkerboard drug interaction (FICI, MICc);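 also: simplified diagonal checkerboard screen pairing azole antifungals with FPPS inhibitors, FICI calculated under the Loewe additivity model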; type: cell-based; conditions: T. rubrum
# Description: as §1
# [9] = system: Candida glabrata; assay: MIC/MFC broth microdilution (CLSI); conditions: Nakaseomyces glabratus, CBS138;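 also: broth microdilution following CLSI M27-Ed4, MFC taken as the lowest drug level yielding no growth once MIC wells were subcultured on SDA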
# Description: as §2
# [10] = system: Cryptococcus deuterogattii; assay: checkerboard drug interaction (FICI, MICc);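 as to all read-outs here: simplified diagonal checkerboard screen pairing antifungal drugs with FPPS inhibitors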; type: cell-based; conditions: C. deuterogattii; for INH FD (MIC-MICc fold decrease): fold decrease of inhibitor MIC
# Description: as §1
# [11] = FLC:INH combination, MIC of the inhibitor in combination with FLC
# [12] = FLC:INH combination, fold decrease of FLC MIC
# [13] = ITR:INH combination, MIC of the inhibitor in combination with ITR
# [14] = ITR:INH combination, fold decrease of ITR MIC
# [15] = KET:INH combination, MIC of the inhibitor in combination with KET
# [16] = KET:INH combination, fold decrease of KET MIC
smiles,measurement,setting,value
CCCCCCCCCCN1CCC[C@H]1C(=O)N[C@@H](CC(=O)OC)C(=O)OC [dmPLA10],INH MICc,[1]; MIC of the inhibitor in combination with KET,32
same,KET FD (MIC-MICc fold decrease),[1]; fold decrease of KET MIC,4
same,INH FD (MIC-MICc fold decrease),[1]; fold decrease of inhibitor MIC,-2
same,FICI,[2]; FLC:INH combination,≥4
same,FLC MICc,"[2]; FLC:INH combination, MIC of FLC in combination with the inhibitor",8
same,INH MICc,[2]; [11],16
same,FLC FD (MIC-MICc fold decrease),[2]; [12],-2
same,INH FD (MIC-MICc fold decrease),[2]; FLC:INH combination,-2
same,FICI,[2]; ITR:INH combination,1.13
same,ITR MICc,"[2]; ITR:INH combination, MIC of ITR in combination with the inhibitor",0.25
same,INH MICc,[2]; [13],1
same,ITR FD (MIC-MICc fold decrease),[2]; [14],1
same,INH FD (MIC-MICc fold decrease),[2]; ITR:INH combination,8
same,FICI,[2]; KET:INH combination,1.13
same,KET MICc,"[2]; KET:INH combination, MIC of KET in combination with the inhibitor",2
same,INH MICc,[2]; [15],1
same,KET FD (MIC-MICc fold decrease),[2]; [16],1
same,INH FD (MIC-MICc fold decrease),[2]; KET:INH combination,8
same,MFC,[3],32 µg/mL
same,MIC,[3],32 µg/mL
same,MFC,[4],16 µg/mL
same,MIC,[4],8 µg/mL
same,IC50,"[5]; HEK-293T cells, read-out: IC50",1.57 µg/mL
same,IC50,[5]; read-out: HEK IC50,1.57 µg/mL
same,GM fungal MICc,[6],8
same,FICI,[7]; FLC:INH combination,0.75
same,INH MICc,[7]; [11],8
same,FLC FD (MIC-MICc fold decrease),[7]; [12],4
same,INH FD (MIC-MICc fold decrease),[7]; FLC:INH combination,2
same,FICI,[7]; ITR:INH combination,0.75
same,INH MICc,[7]; [13],8
same,ITR FD (MIC-MICc fold decrease),[7]; [14],4
same,INH FD (MIC-MICc fold decrease),[7]; ITR:INH combination,2
same,FICI,[7]; KET:INH combination,0.75
same,INH MICc,[7]; [15],8
same,KET FD (MIC-MICc fold decrease),[7]; [16],4
same,INH FD (MIC-MICc fold decrease),[7]; KET:INH combination,2
same,FICI (FLC:INH),"[8]; Fractional Inhibitory Concentration Index, fluconazole + inhibitor",≥4
same,FICI (ITR:INH),"[8]; Fractional Inhibitory Concentration Index, itraconazole + inhibitor",1.03
same,FICI (KET:INH),"[8]; Fractional Inhibitory Concentration Index, ketoconazole + inhibitor",1.06
same,INH MICc (FLC:INH),[8]; MIC of the inhibitor in combination with fluconazole,64
same,INH MICc (ITR:INH),[8]; MIC of the inhibitor in combination with itraconazole,8
same,INH MICc (KET:INH),[8]; MIC of the inhibitor in combination with ketoconazole,8
same,FLC FD (FLC:INH),"[8]; MIC-MICc fold decrease of fluconazole, negative = increase",2
same,ITR FD (ITR:INH),"[8]; MIC-MICc fold decrease of itraconazole, negative = increase",32
same,KET FD (KET:INH),"[8]; MIC-MICc fold decrease of ketoconazole, negative = increase",16
same,INH FD (FLC:INH),"[8]; MIC-MICc fold decrease of the inhibitor, with fluconazole",< -4
same,INH FD (ITR:INH),"[8]; MIC-MICc fold decrease of the inhibitor, with itraconazole",1
same,INH FD (KET:INH),"[8]; MIC-MICc fold decrease of the inhibitor, with ketoconazole",1
same,MFC,[9],32 µg/mL
same,MIC,[9],32 µg/mL
same,FICI,[10]; FLC:INH combination,0.38
same,INH MICc,[10]; [11],8
same,FLC FD (MIC-MICc fold decrease),[10]; [12],8
same,INH FD (MIC-MICc fold decrease),[10]; FLC:INH combination,4
same,FICI,[10]; ITR:INH combination,0.5
same,INH MICc,[10]; [13],8
same,ITR FD (MIC-MICc fold decrease),[10]; [14],4
same,INH FD (MIC-MICc fold decrease),[10]; ITR:INH combination,4
same,FICI,[10]; KET:INH combination,0.28
same,INH MICc,[10]; [15],8
same,KET FD (MIC-MICc fold decrease),[10]; [16],32
same,INH FD (MIC-MICc fold decrease),[10]; KET:INH combination,4

# Reference: article PMC12892976, “Alkylation-based optimization of antifungal FPPS inhibitors yields a potent, broad-spectrum lipophilic zoledronate derivative” (mBio, 2025)
